The record followed here is ChEMBL document CHEMBL1131207, “Discovery and evaluation of a series of 3-acylindole imidazopyridine platelet-activating factor antagonists” (J Med Chem, 1998).

SMILES strings stand for the structures. A value given as a limit tells only on which side of the number the result lay.

The target in assay [1] is Platelet-activating factor receptor (Rattus norvegicus) (UniProt P46002). The assay is described as follows: Ability to block the effect of exogenously administered PAF upon intravenous administration in PAF-induced rat skin permeability assay. The assay is classed as functional, organism-based.
Assay [2] has the same target. The assay is described as follows: Tested in vivo for to block the effect of exogenously administered PAF upon oral administration in PAF-induced rat skin permeability assay. Type of assay: functional, organism-based.

Platelet-activating factor receptor (Rattus norvegicus), sequence (P46002 whole entry): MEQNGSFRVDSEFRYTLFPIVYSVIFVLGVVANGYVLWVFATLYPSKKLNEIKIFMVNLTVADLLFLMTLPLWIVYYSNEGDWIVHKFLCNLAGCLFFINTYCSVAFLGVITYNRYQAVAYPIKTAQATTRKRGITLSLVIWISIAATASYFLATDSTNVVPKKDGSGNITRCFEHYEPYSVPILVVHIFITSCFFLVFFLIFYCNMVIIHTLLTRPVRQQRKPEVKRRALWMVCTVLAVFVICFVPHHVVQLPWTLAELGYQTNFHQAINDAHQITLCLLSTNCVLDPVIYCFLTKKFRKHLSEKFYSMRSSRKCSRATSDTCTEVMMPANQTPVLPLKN

Usually ED50 stands for the dose at which the effect has come halfway, by size or by number of responders. On to `CCc1cccc2c1c(C(=O)c1ccc(Cn3c(C)nc4cnccc43)cc1)cn2C(=O)N(C)C`, for which the ED50 in assay [1] turned out to be 0.003 mg/kg; in assay [2], 0.078 mg/kg.
In assay [1], `COC(=O)c1ccc2c(c1)c(C(=O)c1ccc(Cn3c(C)nc4cnccc43)cc1)cn2C(=O)N(C)C` displayed an ED50 of more than 1 mg/kg.
On to `Cc1nc2cnccc2n1Cc1ccc(S(=O)(=O)c2cn(C(=O)N(C)C)c3ccccc23)cc1`, for which, in assay [1], the ED50 was more than 1 mg/kg.
Compound `COC(=O)c1[nH]c2cccc(OC)c2c1C(=O)c1ccc(Cn2c(C)nc3cnccc32)cc1` registered an ED50 in assay [1] of 0.65 mg/kg.
`COC(=O)c1cccc2c1c(C(=O)c1ccc(Cn3c(C)nc4c(C)nc(C)cc43)cc1)cn2C(=O)N(C)C` registered an ED50 in assay [1] of more than 1 mg/kg.
In the case of `Cc1nc2cnccc2n1CCCCCC(=O)c1cn(C(=O)N(C)C)c2cccc(-c3ccc(F)cc3)c12`, the figures for the ED50 in assay [1] and in assay [2] were 0.005 mg/kg and more than 1 mg/kg, respectively.
For `CCOCCn1cc(C(=O)CN2CCC(n3c(C)nc4cnccc43)CC2)c2c(Cl)cccc21`, the 50% effect level in assay [1] (ED50) was put at a dose of 0.068 mg/kg.
Take `Cc1nc2cnccc2n1CC1CCN(C(=O)c2cn(C(=O)N(C)C)c3cc(-c4ccc(F)cc4)ccc23)CC1`: the values for the ED50 in assay [1] and in assay [2] were 0.022 mg/kg and 2.2 mg/kg, respectively.
The corresponding values for `Cc1nc2cnccc2n1Cc1ccc(C(=O)c2cn(C(=O)N(C)C)c3cccc(Br)c23)cc1` are 0.007 mg/kg and 0.13 mg/kg.
The corresponding values for `COC(=O)c1cccc2c1c(C(=O)CN1CCC(n3c(C)nc4cnccc43)CC1)cn2C(=O)N(C)C` are 0.006 mg/kg and more than 1 mg/kg.
Take `Cc1nc2cnccc2n1Cc1ccc(C(=O)c2cn(C(=O)N(C)C)c3cccc(C(=O)N(C)C)c23)cc1`: the ED50 in assay [1] worked out at 0.028 mg/kg; in assay [2], 1.3 mg/kg.
With `C#Cc1cccc2c1c(C(=O)c1ccc(Cn3c(C)nc4cnccc43)cc1)cn2C(=O)N(C)C`, the figures for the ED50 in assay [1] and in assay [2] were 0.003 mg/kg and 0.14 mg/kg, respectively.
`COC(=O)c1cccc2[nH]cc(C(=O)c3ccc(Cn4c(C)nc5cnccc54)cc3)c12` displayed an ED50 in assay [1] of 0.15 mg/kg.
The same measure, in the same setting: next, `COC(=O)c1cccc2c1c(C(=O)c1ccc(Cn3c(C)nc4cnccc43)cc1)cn2C(C)C`: 0.1 mg/kg.
For `COC(=O)c1cccc2c1c(C(=O)c1ccc(Cn3c(C)nc4cnccc43)cc1)cn2C(=O)N1CCCC1`, the ED50 came out at 0.005 mg/kg in assay [1] and 1.2 mg/kg in assay [2].
Consider `COC(=O)c1cc(-c2ccc(F)cc2)cc2c1c(C(=O)c1ccc(Cn3c(C)nc4cnccc43)cc1)cn2C(=O)N(C)C`, for which the ED50 in assay [1] was 0.002 mg/kg; in assay [2] it was 0.64 mg/kg.
As to `COC(=O)c1cccc2c1c(C(=O)c1ccc(Cn3c(C)nc4cccnc43)cc1)cn2C(=O)N(C)C`, the 50% effect level in assay [1] (ED50) was put at a dose of 1.2 mg/kg.
Compound `Cc1nc2cnccc2n1Cc1ccc(C(=O)c2cn(C(=O)N(C)C)c3cccc(C(=O)OC(C)C)c23)cc1` had an ED50 in assay [1] of 0.006 mg/kg.
Consider `COC(=O)c1cccc2c1c(C(=O)c1ccc(Cn3c(C)nc4ccncc43)cc1)cn2C(=O)N(C)C`, for which, in assay [1], the ED50 was 0.24 mg/kg.
In assay [1], `Cc1[nH]c2ccccc2c1C(=O)c1ccc(Cn2c(C)nc3cnccc32)cc1` came in with an ED50 of more than 1 mg/kg.
With `Cc1ccc(C)c2c(C(=O)c3ccc(Cn4c(C)nc5cnccc54)cc3)c[nH]c12`, the ED50 in assay [1] was found to be 0.054 mg/kg.
On the same count and under the same terms, next, `Cc1nc2cnccc2n1CCCN(C)CC(=O)c1cn(C(=O)N(C)C)c2cc(-c3ccc(F)cc3)ccc12`: more than 1 mg/kg.
The same measure, in the same setting: next, `Cc1nc2cnccc2n1Cc1ccc(C(=O)c2cn(C(=O)N(C)C)c3cccc(C#N)c23)cc1`: 0.23 mg/kg.
The compound `Cc1nc2cnccc2n1Cc1ccc(C(=O)c2c[nH]c3c(OCc4ccccc4)cccc23)cc1` displayed an ED50 in assay [1] of 0.24 mg/kg.
Regarding `COC(=O)c1cccc2c1c(C(=O)CCCCCCn1c(C)nc3cnccc31)cn2C(=O)N(C)C`, in assay [1], the ED50 was more than 1 mg/kg.
`COC(=O)c1cccc2c1c(C(=O)CCCCn1c(C)nc3cnccc31)cn2C(=O)N(C)C` gave an ED50 in assay [1] of more than 1 mg/kg.
Consider `COC(=O)c1cccc2c1c(C(=O)c1ccc(Cn3c(C)nc4cnccc43)cc1)cn2C(=O)N(C)C`, for which it took a dose of 0.22 mg/kg to reach the 50% effect level in assay [2] (ED50).
Compound `C#Cc1cccc2c1c(C(=O)c1ccc(Cn3c(C)nc4cnccc43)c(F)c1)cn2C(=O)NC` returned an ED50 in assay [1] of 0.006 mg/kg.
On the same count and under the same terms, under `Cc1nc2cnccc2n1Cc1ccc(C(=O)c2cn(C(=O)N(C)C)c3ccc(-c4ccc(F)cc4)cc23)cc1` stands more than 1 mg/kg; under `COC(=O)c1cccc2c1c(C(=O)c1ccc(Cn3c(C)nc4cnccc43)cc1)cn2CC(=O)C(C)(C)C`, 0.036 mg/kg; under `C#Cc1cccc2c1c(C(O)c1ccc(Cn3c(C)nc4cnccc43)c(F)c1)cn2C(=O)N(C)C` (centres undefined), 0.007 mg/kg.
The compound `Cc1nc2cnccc2n1CC(=O)c1cn(C(=O)N(C)C)c2cc(-c3ccc(F)cc3)ccc12` had an ED50 in assay [1] of more than 1 mg/kg.
The same measure, in the same setting: next, `Cc1nc2cnccc2n1CN1CCN(S(=O)(=O)c2cn(C(=O)N(C)C)c3cc(-c4ccc(F)cc4)ccc23)CC1`: 0.019 mg/kg; `C#Cc1cccc2[nH]cc(C(=O)c3ccc(Cn4c(C)nc5cnccc54)c(F)c3)c12`: 0.018 mg/kg; `Cc1nc2cnccc2n1Cc1ccc(C(=O)c2c[nH]c3c(-c4ccc(F)cc4)cccc23)cc1`: more than 1 mg/kg.
For the compound `Cc1nc2cnccc2n1Cc1ccc(C(=O)c2cn(C(=O)N(C)C)c3cccc(-c4ccco4)c23)cc1`, the ED50 in assay [1] turned out to be 0.007 mg/kg; in assay [2], 0.79 mg/kg.
In assay [1], `Cc1nc2cnccc2n1Cc1ccc(C(=O)c2cn(C(=O)N(C)C)c3cccc(NC(=O)c4ccccc4)c23)cc1` registered an ED50 of 0.11 mg/kg.
Turning to `Cc1nc2cnccc2n1Cc1ccc(C(=O)c2cn(C(=O)N(C)C)c3cccc(F)c23)cc1`, the ED50 in assay [1] is 0.18 mg/kg.
The compound `Cc1nc2cnccc2n1Cc1ccc(C(=O)c2cn(C(=O)N(C)C)c3ccccc23)cc1` displayed an ED50 in assay [1] of 0.18 mg/kg.
In turn, `COC(=O)c1cccc2c1c(C(=O)c1ccc(Cn3c(C)nc4cnccc43)cc1)cn2C(N)=O` had an ED50 in assay [1] of 0.12 mg/kg.
`C#Cc1cccc2c1c(C(=O)c1ccc(Cn3c(C)nc4c[n+]([O-])ccc43)c(F)c1)cn2C(=O)N(C)C` gave an ED50 in assay [1] of more than 0.5 mg/kg.
Consider `Cc1nc2cnccc2n1Cc1ccc(C(=O)c2cn(C(=O)N(C)C)c3cccc(C(=O)O)c23)cc1`, for which the ED50 in assay [1] is more than 1 mg/kg.
For `Cc1nc2ccncc2n1Cc1ccc(C(=O)c2cn(C(=O)N(C)C)c3cc(-c4ccc(F)cc4)ccc23)cc1`, in assay [1], the 50% effect level (ED50) was put at a dose of 1.1 mg/kg.
In the case of `COC(=O)c1cccc2c1c(C(=O)c1ccc(Cn3c(C)nc4cnccc43)c(F)c1)cn2C(=O)N(C)C`, the ED50 worked out at 0.006 mg/kg in assay [1] and 0.36 mg/kg in assay [2].
For the compound `COC(=O)c1ccc(C(=O)OC)c2c(C(=O)c3ccc(Cn4c(C)nc5cnccc54)cc3)c[nH]c12`, the results for the ED50 in assay [1] and in assay [2] were 0.035 mg/kg and 0.71 mg/kg, respectively.
On to `COc1cccc2c1c(C(=O)c1ccc(Cn3c(C)nc4cnccc43)cc1)cn2C(=O)N(C)C`, for which the ED50 in assay [1] was 0.007 mg/kg; in assay [2], 0.22 mg/kg.
In assay [1], `COC(=O)c1cc(-c2cc3ccccc3o2)cc2c1c(C(=O)c1ccc(Cn3c(C)nc4cnccc43)cc1)cn2C(=O)N(C)C` yielded an ED50 of 0.011 mg/kg.
On to `COC(=O)c1cccc2c1c(C(=O)C1CCC(Cn3c(C)nc4cnccc43)CC1)cn2C(=O)N(C)C` (centres undefined), for which the results for the ED50 in assay [1] and in assay [2] were 0.02 mg/kg and more than 1 mg/kg, respectively.
Regarding `Cc1nc2cnccc2n1Cc1ccc(C(=O)c2cn(C(=O)N(C)C)c3cccc(Cl)c23)cc1`, the results for the ED50 in assay [1] and in assay [2] were 0.008 mg/kg and 0.12 mg/kg, respectively.
In assay [1], `COC(=O)c1cccc2c1c(C(=O)c1ccc(Cn3c(C)nc4c(O)nccc43)cc1)cn2C(=O)N(C)C` showed an ED50 of 0.25 mg/kg.
Take `CNC(=O)n1cc(C(=O)c2ccc(Cn3c(C)nc4cnccc43)cc2)c2c(C(=O)OC)cccc21`: the ED50 in assay [1] worked out at 0.007 mg/kg.
Turning to `COC(=O)c1cccc2c1c(C(=O)c1ccc(Cn3c(C)nc4cnccc43)cc1)cn2CC(=O)N(C)C`, the ED50 was found to be 0.012 mg/kg in assay [1] and 2.4 mg/kg in assay [2].
For the compound `Cc1nc2cnccc2n1Cc1ccc(C(=O)c2cn(C(=O)N(C)C)c3cccc(O)c23)cc1`, the ED50 in assay [1] is more than 1 mg/kg.
For `COC(=O)c1cc(C#Cc2ccccc2)cc2c1c(C(=O)c1ccc(Cn3c(C)nc4cnccc43)cc1)cn2C(=O)N(C)C`, the ED50 turned out to be 0.004 mg/kg in assay [1] and 0.6 mg/kg in assay [2].
`CCOCCn1cc(C(=O)c2ccc(Cn3c(C)nc4cnccc43)cc2)c2c(C(=O)OC)cccc21`: the ED50 in assay [1] came out at 0.012 mg/kg; in assay [2], 1.1 mg/kg.
`COC(=O)c1cccc2c1c(C(=O)c1ccc(Cn3c(C)nc4cnccc43)cc1)cn2S(=O)(=O)N(C)C` registered an ED50 in assay [1] of 0.074 mg/kg.
With `Cc1nc2ncccc2n1Cc1ccc(C(=O)c2cn(C(=O)N(C)C)c3cccc(Cl)c23)cc1`, the 50% effect level in assay [1] (ED50) was put at a dose of 0.34 mg/kg.
With `Cc1nc2cnccc2n1Cc1ccc(C(=O)c2cn(C(=O)N(C)C)c3cccc(C(=O)OCc4ccccc4)c23)cc1`, the ED50 in assay [1] was 0.12 mg/kg.
Consider `COC(=O)c1cc(Br)cc2c1c(C(=O)c1ccc(Cn3c(C)nc4cnccc43)cc1)cn2C(=O)N(C)C`, for which the ED50 in assay [1] was 0.009 mg/kg; in assay [2], 0.83 mg/kg.
Take `Cc1nc2cnccc2n1C1CCN(C(=O)c2cn(C(=O)N(C)C)c3cc(-c4ccc(F)cc4)ccc23)CC1`: the ED50 in assay [1] is more than 1 mg/kg.
On to `Cc1nc2cnccc2n1Cc1ccc(C(=O)c2c[nH]c3cc(-c4ccc(F)cc4)ccc23)cc1`, for which the 50% effect level in assay [1] (ED50) was put at a dose of 1.3 mg/kg.
On to `COC(=O)c1cccc2c1c(C(=O)c1ccc(Cn3c(C)nc4c[n+]([O-])ccc43)cc1)cn2C(=O)N(C)C`, for which the 50% effect level in assay [1] (ED50) was put at a dose of 0.14 mg/kg.
Still for that read-out and setting: under `COC(=O)c1cccc2c1c(S(=O)(=O)c1ccc(Cn3c(C)nc4cnccc43)cc1)cn2C(=O)N(C)C` stands 0.48 mg/kg; under `COC(=O)c1cccc2c1c(C(=O)c1ccc(Cn3c(C)nc4ccccc43)cc1)cn2C(=O)N(C)C`, more than 1 mg/kg.
Regarding `COC(=O)c1cccc2c1c(C(=O)c1ccc(Cn3c(C)nc4cnccc43)s1)cn2C(=O)N(C)C`, the ED50 in assay [1] turned out to be 0.12 mg/kg.
On the same count and under the same terms, next, `Cc1nc2cnccc2n1CCN1CCN(C(=O)c2cn(C(=O)N(C)C)c3cc(-c4ccc(F)cc4)ccc23)CC1`: more than 1 mg/kg; `COC(=O)c1cccc2c1c(C(=O)c1ccc(Cn3c(C)nc4ccccc43)cc1)cn2C(=O)N1CCCC1`: 1 mg/kg.
`COC(=O)c1cccc2c1c(C(=O)c1ccc(Cn3c(C)nc4cnccc43)cc1)cn2S(=O)(=O)C(C)C` yielded an ED50 in assay [1] of 0.12 mg/kg.
On to `Cc1nc2cnccc2n1Cc1csc(C(=O)c2cn(C(=O)N(C)C)c3cc(-c4ccc(F)cc4)ccc23)n1`, for which, in assay [1], it took a dose of 0.35 mg/kg to reach the 50% effect level (ED50).
Compound `COC(=O)c1cccc2c1c(C(=O)c1ccc(Cn3c(C)nc4ncccc43)cc1)cn2C(=O)N(C)C` yielded an ED50 in assay [1] of 0.026 mg/kg.
